The record followed here is patent publication US11492385B2, “Long-acting co-agonists of the glucagon and GLP-1 receptors” (Merck Sharp & Dohme Corp., priority 2015, dated 2022).

One assay deals with T1, human GLP1R (Homo sapiens, UniProt P43220).
T1 construct: expressed in transfected cells; kept under Blasticidin and Hygromycin selection
The assay can be described thus: cAMP activity assay, cells expressing human GLP1R. Conditions: cAMP production, assay buffer with or without 20% human serum (not stated which). It is filed as cell-based. Summed up: (§1)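 Peptides as 10-point titrations from DMSO tested on cells expressing human GLP1R or GCGR. cAMP measured by luminescent kit after overnight room-temperature incubation in the dark. EC50 from four-parameter logistic fit; native GLP-1 and glucagon as controls.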
On the technique in general: Changes in cAMP serve as a functional read-out for many G protein-coupled receptors.

The target in another assay is T2, human GCGR (Homo sapiens, UniProt P47871).
T2 construct: expressed in transfected cells; kept under Blasticidin and Hygromycin selection
The assay can be described thus: cAMP activity assay, cells expressing human GCGR. It is filed as cell-based. The note with it: for EC50: cAMP production, cells expressing human GCGR, assay buffer with or without 20% human serum (not stated which), read-out: GCGR EC50 human; for hGCGR/hGLP1R (hTone): ratio of human GCGR EC50 to human GLP1R EC50. The procedure, abridged: as §1

Starred links: 1 amine or outer side, 2 acyl side, 3 side chain; linkers in the order of their positions; H or OH if unused. Non-standard residues stand in square brackets, D forms with d. Residues, ends and D or L forms follow the SMILES beside them. Groups on a side chain read outwards from the residue. *: point of attachment. Phe(4-CH2NH2) = NCc1ccc(C[C@H](N)C(=O)O)cc1; C18 diacid = O=C(O)CCCCCCCCCCCCCCCCC(=O)*; C16 diacid = O=C(O)CCCCCCCCCCCCCCC(=O)*; γGlu = O=C(O)[C@H](CCC(=O)[*:2])N[*:1]; X1 = O=C([C@H]1CCC[C@@H]1N[*:1])[*:2]; Met(O2) = CS(=O)(=O)CC[C@H](N)C(=O)O; αMeD = C[C@](N)(CC(=O)O)C(=O)O; AEEA = NCCOCCOCC(=O)O; Aib = CC(C)(N)C(=O)O

T1 sequence (P43220 24-463): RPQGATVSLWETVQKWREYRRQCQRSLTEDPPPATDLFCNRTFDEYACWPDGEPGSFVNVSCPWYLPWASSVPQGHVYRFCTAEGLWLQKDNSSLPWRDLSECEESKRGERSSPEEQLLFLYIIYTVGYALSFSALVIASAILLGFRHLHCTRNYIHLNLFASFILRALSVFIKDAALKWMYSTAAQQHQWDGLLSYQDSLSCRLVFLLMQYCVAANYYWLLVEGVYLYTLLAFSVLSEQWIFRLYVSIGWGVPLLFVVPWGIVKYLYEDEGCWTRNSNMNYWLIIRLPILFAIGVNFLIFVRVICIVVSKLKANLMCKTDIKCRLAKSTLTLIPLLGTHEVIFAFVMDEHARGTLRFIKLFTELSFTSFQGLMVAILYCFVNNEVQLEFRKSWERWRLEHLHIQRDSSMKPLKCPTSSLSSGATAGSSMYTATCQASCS
T2 sequence (P47871 26-477): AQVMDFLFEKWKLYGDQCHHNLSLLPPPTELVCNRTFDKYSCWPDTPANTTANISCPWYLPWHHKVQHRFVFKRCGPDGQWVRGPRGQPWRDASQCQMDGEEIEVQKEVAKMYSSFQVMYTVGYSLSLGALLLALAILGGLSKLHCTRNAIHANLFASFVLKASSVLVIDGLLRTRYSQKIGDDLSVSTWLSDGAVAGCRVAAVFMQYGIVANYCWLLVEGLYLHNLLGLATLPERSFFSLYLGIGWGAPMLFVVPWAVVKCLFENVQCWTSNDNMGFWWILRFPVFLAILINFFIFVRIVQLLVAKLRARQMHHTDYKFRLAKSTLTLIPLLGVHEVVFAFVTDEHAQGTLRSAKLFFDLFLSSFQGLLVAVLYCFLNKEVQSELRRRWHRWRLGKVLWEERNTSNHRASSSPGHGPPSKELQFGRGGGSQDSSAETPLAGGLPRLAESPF

At human GLP1R, `CC(C)C[C@H](NC(=O)[C@H](Cc1ccc(O)cc1)NC(=O)[C@H](CCCCN)NC(=O)[C@H](CO)NC(=O)[C@H](Cc1ccc(O)cc1)NC(=O)[C@H](CC(=O)O)NC(=O)[C@H](CO)NC(=O)[C@@H](NC(=O)[C@H](Cc1ccccc1)NC(=O)[C@@H](NC(=O)CNC(=O)[C@H](CCC(N)=O)NC(=O)C(C)(C)NC(=O)[C@@H](N)Cc1c[nH]cn1)[C@@H](C)O)[C@@H](C)O)C(=O)N[C@@H](CC(=O)O)C(=O)N[C@@H](C)C(=O)N[C@@H](CCCNC(=N)N)C(=O)N[C@@H](C)C(=O)N[C@@H](C)C(=O)N[C@@H](CCC(N)=O)C(=O)N[C@@H](Cc1ccc(CNC(=O)COCCOCCNC(=O)COCCOCCNC(=O)CC[C@H](NC(=O)CCCCCCCCCCCCCCCCC(=O)O)C(=O)O)cc1)C(=O)N[C@@H](Cc1ccccc1)C(=O)N[C@H](C(=O)N[C@@H](CCC(N)=O)C(=O)N[C@@H](Cc1c[nH]c2ccccc12)C(=O)N[C@@H](CC(C)C)C(=O)N[C@@H](CC(C)C)C(=O)N[C@@](C)(CC(=O)O)C(=O)N[C@H](C(N)=O)[C@@H](C)O)C(C)C` [compound 75] (H-H[Aib]QGTFTSDYSKYLDARAAQ[Phe(4-CH2NH2)]([AEEA-AEEA-γGlu-C18 diacid])FVQWLL[αMeD]T-NH2) returned an EC50 of 0.42 nM. Also, on human GCGR, the EC50 worked out at 0.36 nM and the “hGCGR/hGLP1R (hTone)” value came to 0.9.
The corresponding values for `CC(C)C[C@H](NC(=O)[C@H](Cc1ccc(O)cc1)NC(=O)[C@H](CCCCN)NC(=O)[C@H](CO)NC(=O)[C@H](Cc1ccc(O)cc1)NC(=O)[C@H](CC(=O)O)NC(=O)[C@H](CO)NC(=O)[C@@H](NC(=O)[C@H](Cc1ccccc1)NC(=O)[C@@H](NC(=O)CNC(=O)[C@H](CCC(N)=O)NC(=O)C(C)(C)NC(=O)[C@@H](N)Cc1c[nH]cn1)[C@@H](C)O)[C@@H](C)O)C(=O)N[C@@H](CC(=O)O)C(=O)N[C@@H](C)C(=O)N[C@@H](CCCNC(=N)N)C(=O)N[C@@H](C)C(=O)N[C@@H](C)C(=O)N[C@@H](CCCCNC(=O)COCCOCCNC(=O)COCCOCCNC(=O)CC[C@H](NC(=O)CCCCCCCCCCCCCCCCC(=O)O)C(=O)O)C(=O)N[C@@H](CC(=O)O)C(=O)N[C@@H](Cc1ccccc1)C(=O)N[C@H](C(=O)N[C@@H](CCC(N)=O)C(=O)N[C@@H](Cc1c[nH]c2ccccc12)C(=O)N[C@@H](CC(C)C)C(=O)N[C@@H](CCS(C)(=O)=O)C(=O)N[C@@H](CC(=O)O)C(=O)N[C@H](C(N)=O)[C@@H](C)O)C(C)C` [compound 29] (H-H[Aib]QGTFTSDYSKYLDARAAK([AEEA-AEEA-γGlu-C18 diacid])DFVQWL[Met(O2)]DT-NH2; N-terminus assumed) are 0.27 nM, 0.79 nM and 2.93.
With `CC(C)C[C@H](NC(=O)[C@H](Cc1ccc(O)cc1)NC(=O)[C@H](CCCCN)NC(=O)[C@H](CO)NC(=O)[C@H](Cc1ccc(O)cc1)NC(=O)[C@H](CC(=O)O)NC(=O)[C@H](CO)NC(=O)[C@@H](NC(=O)[C@H](Cc1ccccc1)NC(=O)[C@@H](NC(=O)CNC(=O)[C@H](CCC(N)=O)NC(=O)C(C)(C)NC(=O)[C@@H](N)Cc1c[nH]cn1)[C@@H](C)O)[C@@H](C)O)C(=O)N[C@@H](CC(=O)O)C(=O)N[C@@H](C)C(=O)N[C@@H](CCCNC(=N)N)C(=O)N[C@@H](C)C(=O)N[C@@H](C)C(=O)N[C@@H](CCC(N)=O)C(=O)N[C@@H](CCCCNC(=O)COCCOCCNC(=O)COCCOCCNC(=O)CC[C@H](NC(=O)CCCCCCCCCCCCCCC(=O)O)C(=O)O)C(=O)N[C@@H](Cc1ccccc1)C(=O)N[C@H](C(=O)N[C@@H](CCC(N)=O)C(=O)N[C@@H](Cc1c[nH]c2ccccc12)C(=O)N[C@@H](CC(C)C)C(=O)N[C@@H](CCS(C)(=O)=O)C(=O)N[C@@H](CC(=O)O)C(=O)N[C@H](C(N)=O)[C@@H](C)O)C(C)C` [compound 20] (H-H[Aib]QGTFTSDYSKYLDARAAQK([AEEA-AEEA-γGlu-C16 diacid])FVQWL[Met(O2)]DT-NH2), the 50% effective concentration (EC50) on human GLP1R and on human GCGR was 0.03 nM each time. Moreover, the “hGCGR/hGLP1R (hTone)” value on human GCGR was determined as 0.98.
`CC(C)C[C@H](NC(=O)[C@H](Cc1ccc(O)cc1)NC(=O)[C@H](CCCCN)NC(=O)[C@H](CO)NC(=O)[C@H](Cc1ccc(CNC(=O)COCCOCCNC(=O)COCCOCCNC(=O)CC[C@H](NC(=O)CCCCCCCCCCCCCCC(=O)O)C(=O)O)cc1)NC(=O)[C@H](CC(=O)O)NC(=O)[C@H](CO)NC(=O)[C@@H](NC(=O)[C@H](Cc1ccccc1)NC(=O)[C@@H](NC(=O)CNC(=O)[C@H](CCC(N)=O)NC(=O)[C@@H](CO)NC(=O)[C@@H](N)Cc1c[nH]cn1)[C@@H](C)O)[C@@H](C)O)C(=O)N[C@@H](CC(=O)O)C(=O)N[C@@H](CCC(=O)O)C(=O)N[C@@H](CCCNC(=N)N)C(=O)N[C@@H](C)C(=O)N[C@@H](C)C(=O)N[C@@H](CCC(N)=O)C(=O)N[C@@H](CC(=O)O)C(=O)N[C@@H](Cc1ccccc1)C(=O)N[C@H](C(=O)N[C@@H](CCC(N)=O)C(=O)N[C@@H](Cc1c[nH]c2ccccc12)C(=O)N[C@@H](CC(C)C)C(=O)N[C@@H](CC(C)C)C(=O)N[C@@H](CCCCN)C(=O)N[C@H](C(N)=O)[C@@H](C)O)C(C)C` [compound 10] (H-H[dS]QGTFTSD[Phe(4-CH2NH2)]([AEEA-AEEA-γGlu-C16 diacid])SKYLDERAAQDFVQWLLKT-NH2; N-terminus assumed) had a half-maximal effective concentration (EC50) on human GLP1R of 0.46 nM. In addition, on human GCGR, the half-maximal effective concentration (EC50) amounted to 0.12 nM and the “hGCGR/hGLP1R (hTone)” value came out at 0.26.
The corresponding values for `CC(C)C[C@H](NC(=O)[C@H](CC(C)C)NC(=O)[C@H](Cc1c[nH]c2ccccc12)NC(=O)[C@H](CCC(N)=O)NC(=O)[C@@H](NC(=O)[C@H](Cc1ccccc1)NC(=O)[C@H](CCCCNC(=O)COCCOCCNC(=O)COCCOCCNC(=O)CC[C@H](NC(=O)CCCCCCCCCCCCCCC(=O)O)C(=O)O)NC(=O)[C@H](CCC(N)=O)NC(=O)[C@H](C)NC(=O)[C@H](C)NC(=O)[C@H](CCCNC(=N)N)NC(=O)C(C)(C)NC(=O)[C@H](CC(=O)O)NC(=O)[C@H](CC(C)C)NC(=O)[C@H](Cc1ccc(O)cc1)NC(=O)[C@H](CCCCN)NC(=O)[C@H](CO)NC(=O)[C@H](Cc1ccc(O)cc1)NC(=O)[C@H](CC(=O)O)NC(=O)[C@H](CO)NC(=O)[C@@H](NC(=O)[C@H](Cc1ccccc1)NC(=O)[C@@H](NC(=O)CNC(=O)[C@H](CCC(N)=O)NC(=O)[C@@H](CO)NC(=O)[C@@H](N)Cc1c[nH]cn1)[C@@H](C)O)[C@@H](C)O)C(C)C)C(=O)N[C@@H](C)C(=O)N[C@H](C(=O)N[C@@H](CCCCNC(=O)CC[C@H](N)C(=O)O)C(N)=O)[C@@H](C)O` [compound 1] (H-H[dS]QGTFTSDYSKYLD[Aib]RAAQK([AEEA-AEEA-γGlu-C16 diacid])FVQWLLATK(γGlu)-NH2) are 1.89 nM, 0.16 nM and 0.09.
In the same order, the values of `CC(C)C[C@H](NC(=O)[C@H](Cc1ccc(O)cc1)NC(=O)[C@H](CCCCN)NC(=O)[C@H](CO)NC(=O)[C@H](CCCCNC(=O)CC[C@H](NC(=O)CC[C@H](NC(=O)CCCCCCCCCCCCCCC(=O)O)C(=O)O)C(=O)O)NC(=O)[C@H](CC(=O)O)NC(=O)[C@H](CO)NC(=O)[C@@H](NC(=O)[C@H](Cc1ccccc1)NC(=O)[C@@H](NC(=O)CNC(=O)[C@H](CCC(N)=O)NC(=O)[C@@H](CO)NC(=O)[C@@H](N)Cc1c[nH]cn1)[C@@H](C)O)[C@@H](C)O)C(=O)N[C@@H](CC(=O)O)C(=O)N[C@@H](CCC(=O)O)C(=O)N[C@@H](CCCNC(=N)N)C(=O)N[C@@H](C)C(=O)N[C@@H](C)C(=O)N[C@@H](CCC(N)=O)C(=O)N[C@@H](CC(=O)O)C(=O)N[C@@H](Cc1ccccc1)C(=O)N[C@H](C(=O)N[C@@H](CCC(N)=O)C(=O)N[C@@H](Cc1c[nH]c2ccccc12)C(=O)N[C@@H](CC(C)C)C(=O)N[C@@H](CC(C)C)C(=O)N[C@@H](CCCCN)C(=O)N[C@H](C(N)=O)[C@@H](C)O)C(C)C` [compound 9] are 0.67 nM, 1.98 nM and 3.22.
In the same order, the values of `CC(C)C[C@H](NC(=O)[C@H](Cc1ccc(O)cc1)NC(=O)[C@H]1CCC[C@@H]1NC(=O)[C@H](CO)NC(=O)[C@H](Cc1ccc(O)cc1)NC(=O)[C@H](CC(=O)O)NC(=O)[C@H](CO)NC(=O)[C@@H](NC(=O)[C@H](Cc1ccccc1)NC(=O)[C@@H](NC(=O)CNC(=O)[C@H](CCC(N)=O)NC(=O)C(C)(C)NC(=O)[C@@H](N)Cc1c[nH]cn1)[C@@H](C)O)[C@@H](C)O)C(=O)N[C@@H](CC(=O)O)C(=O)NC(C)(C)C(=O)N[C@@H](CCCNC(=N)N)C(=O)N[C@@H](C)C(=O)N[C@@H](C)C(=O)N[C@@H](CCCCNC(=O)COCCOCCNC(=O)COCCOCCNC(=O)CC[C@H](NC(=O)CCCCCCCCCCCCCCCCC(=O)O)C(=O)O)C(=O)N[C@@H](CC(=O)O)C(=O)N[C@@H](Cc1ccccc1)C(=O)N[C@H](C(=O)N[C@H]1CCC[C@@H]1C(=O)N[C@@H](Cc1c[nH]c2ccccc12)C(=O)N[C@@H](CC(C)C)C(=O)N[C@@H](CCS(C)(=O)=O)C(=O)N[C@@H](CC(=O)O)C(=O)N[C@H](C(N)=O)[C@@H](C)O)C(C)C` [compound 34] (H-H[Aib]QGTFTSDYS[X1]YLD[Aib]RAAK([AEEA-AEEA-γGlu-C18 diacid])DFV[X1]WL[Met(O2)]DT-NH2; N-terminus assumed) are 1.2 nM, 0.64 nM and 0.53.

One may read the EC50 as the concentration needed to bring the measured effect to its halfway point.
